Test results as given in patent US20230278995A1, “1,3,4-OXADIAZOLE DERIVATIVE COMPOUNDS AS HISTONE DEACETYLASE 6 INHIBITOR, AND THE PHARMACEUTICAL COMPOSITION COMPRISING THE SAME” (CHONG KUN DANG PHARMACEUTICAL CORP., priority 2020, published 2023).

Assays:
[1] = molecular target: T1, human recombinant HDAC6 (Homo sapiens, UniProt Q9UBN7); experiment: HDAC enzyme activity inhibition assay (HDAC Fluorimetric Drug Discovery Kit), HDAC6; format: biochemical; conditions: for HDAC6 selectivity (fold): HDAC1 vs HDAC6; for IC50: human recombinant HDAC6, same protocol as HDAC1
T1 construct: purchased Calbiochem Inc. 382180
T1 sequence (Q9UBN7 1-1215): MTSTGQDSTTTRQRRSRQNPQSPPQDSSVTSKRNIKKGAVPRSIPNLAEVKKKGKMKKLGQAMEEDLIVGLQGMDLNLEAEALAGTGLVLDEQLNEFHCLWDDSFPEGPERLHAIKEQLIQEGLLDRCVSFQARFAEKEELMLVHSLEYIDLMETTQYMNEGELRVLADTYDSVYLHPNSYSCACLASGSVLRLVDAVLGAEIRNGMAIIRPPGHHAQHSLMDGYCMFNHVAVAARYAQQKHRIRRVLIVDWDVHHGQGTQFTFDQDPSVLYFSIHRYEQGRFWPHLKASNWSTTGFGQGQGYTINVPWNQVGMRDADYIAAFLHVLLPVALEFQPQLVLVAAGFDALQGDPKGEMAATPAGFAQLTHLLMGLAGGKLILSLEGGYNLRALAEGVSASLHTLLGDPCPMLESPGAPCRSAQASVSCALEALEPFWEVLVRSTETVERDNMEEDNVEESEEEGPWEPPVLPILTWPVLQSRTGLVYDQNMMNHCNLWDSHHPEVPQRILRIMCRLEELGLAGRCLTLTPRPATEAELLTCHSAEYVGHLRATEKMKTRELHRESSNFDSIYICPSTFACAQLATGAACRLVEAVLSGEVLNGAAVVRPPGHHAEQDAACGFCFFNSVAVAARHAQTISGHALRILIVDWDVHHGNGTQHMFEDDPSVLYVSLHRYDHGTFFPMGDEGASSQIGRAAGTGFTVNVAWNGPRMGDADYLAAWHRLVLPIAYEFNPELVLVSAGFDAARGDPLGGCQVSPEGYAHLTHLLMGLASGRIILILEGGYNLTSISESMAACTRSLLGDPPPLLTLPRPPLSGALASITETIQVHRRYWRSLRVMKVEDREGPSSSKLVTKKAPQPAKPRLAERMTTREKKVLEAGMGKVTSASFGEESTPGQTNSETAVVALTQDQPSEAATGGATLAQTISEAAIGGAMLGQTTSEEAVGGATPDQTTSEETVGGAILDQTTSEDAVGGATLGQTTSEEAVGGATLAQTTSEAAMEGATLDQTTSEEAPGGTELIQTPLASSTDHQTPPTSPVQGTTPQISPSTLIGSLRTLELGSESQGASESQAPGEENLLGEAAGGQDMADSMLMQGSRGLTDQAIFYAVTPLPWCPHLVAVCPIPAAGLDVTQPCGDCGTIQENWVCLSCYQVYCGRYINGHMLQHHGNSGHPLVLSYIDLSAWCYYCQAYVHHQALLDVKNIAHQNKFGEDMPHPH
Description: (§1) For the HDAC1 enzyme activity test, human recombinant HDAC1 (BML-SE456) was used as an enzyme source and Fluor de Lys©-SIRT1 (BNL-K1177) was used as a substrate. After dispensing 5-fold diluted compounds into a 96-well plate, 0.3 μg of enzyme and 10 μM substrate were added to each well of the plate and allowed to react at 30° C. for 60 minutes. Next, Fluor de Lys© Developer II (BML-K1176) was added and reacted for 30 minutes to complete the reaction, and then the fluorescence values (Ex 360, Em 460) were measured using a multi-plate reader (Flexstation 3, Molecular Device). The HDAC6 enzymes were tested using human recombinant HDAC6 (382180) from Calbiochem Inc., according to the same protocol as the HDAC1 enzyme activity test method. With respect to the final result values, respective IC50 values were calculated using GraphPad Prism 4.0 program (Table 2).

[2] = molecular target: T2, human recombinant HDAC1 (Homo sapiens, UniProt Q13547); experiment: HDAC enzyme activity inhibition assay (HDAC Fluorimetric Drug Discovery Kit), HDAC1; format: biochemical; conditions: human recombinant HDAC1, Fluor de Lys-SIRT1 substrate, 30° C. 60 minutes
T2 construct: purchased Enzo Life Sciences, Inc. BML-SE456
Description: as §1

T2 sequence (Q13547 whole entry): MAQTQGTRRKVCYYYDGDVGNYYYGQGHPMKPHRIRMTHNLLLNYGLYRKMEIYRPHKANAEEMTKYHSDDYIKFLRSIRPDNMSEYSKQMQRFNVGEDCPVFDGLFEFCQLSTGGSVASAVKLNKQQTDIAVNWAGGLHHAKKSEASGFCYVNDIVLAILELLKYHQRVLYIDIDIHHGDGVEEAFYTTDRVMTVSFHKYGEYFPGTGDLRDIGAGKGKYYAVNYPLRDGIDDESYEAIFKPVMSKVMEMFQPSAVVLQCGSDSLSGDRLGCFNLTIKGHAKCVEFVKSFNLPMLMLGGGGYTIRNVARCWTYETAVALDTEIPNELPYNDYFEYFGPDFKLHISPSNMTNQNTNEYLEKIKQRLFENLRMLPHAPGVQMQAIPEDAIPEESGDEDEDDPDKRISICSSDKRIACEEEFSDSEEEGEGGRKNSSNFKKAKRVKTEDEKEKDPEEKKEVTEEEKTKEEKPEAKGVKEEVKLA

Compound | HDAC6 selectivity (fold) [1] | IC50 [1] [nM] | IC50 [2] [µM]
O=C(N(Cc1ccc(-c2nnc(C(F)F)o2)cn1)c1ccccc1)C1(F)CCN(C2CCCC2)CC1 [Compound 2996, 1-cyclopentyl-N-((5-(5-(difluoromethyl)-1,3,4-oxadiazol-2-yl)pyridin-2-yl)methyl)-4-fluoro-N-phenylpiperidine-4-carboxamide] | 443 fold | 56.1 | 24.9
O=C(N(Cc1ccc(-c2nnc(C(F)F)o2)cn1)c1ccccc1)C1(F)CN(C2CCCCC2)C1 [Compound 2999, 1-cyclohexyl-N-((5-(5-(difluoromethyl)-1,3,4-oxadiazol-2-yl)pyridin-2-yl)methyl)-3-fluoro-N-phenylazetidine-3-carboxamide] | 801 fold | 62.4 | > 50
O=C(N(Cc1ccc(-c2nnc(C(F)F)o2)cn1)c1ccccc1)C1(F)CN(C2CCOCC2)C1 [Compound 3000, N-((5-(5-(difluoromethyl)-1,3,4-oxadiazol-2-yl)pyridin-2-yl)methyl)-3-fluoro-N-phenyl-1-(tetrahydro-2H-pyran-4-yl)azetidine-3-carboxamide] | 1,157 fold | 43.2 | > 50
CCN1CC(F)(C(=O)N(Cc2ccc(-c3nnc(C(F)F)o3)cn2)c2ccccc2)C1 [Compound 3001, N-((5-(5-(difluoromethyl)-1,3,4-oxadiazol-2-yl)pyridin-2-yl)methyl)-1-ethyl-3-fluoro-N-phenylazetidine-3-carboxamide] | 1,000 fold | 50 | > 50
CCCN1CC(F)(C(=O)N(Cc2ccc(-c3nnc(C(F)F)o3)cn2)c2ccccc2)C1 [Compound 3002, N-((5-(5-(difluoromethyl)-1,3,4-oxadiazol-2-yl)pyridin-2-yl)methyl)-3-fluoro-N-phenyl-1-propylazetidine-3-carboxamide] | 943 fold | 53 | > 50
CCCCN1CC(F)(C(=O)N(Cc2ccc(-c3nnc(C(F)F)o3)cn2)c2ccccc2)C1 [Compound 3003, 1-butyl-N-((5-(5-(difluoromethyl)-1,3,4-oxadiazol-2-yl)pyridin-2-yl)methyl)-3-fluoro-N-phenylazetidine-3-carboxamide] | 735 fold | 37.4 | 27.5
CC(C)CN1CC(F)(C(=O)N(Cc2ccc(-c3nnc(C(F)F)o3)cn2)c2ccccc2)C1 [Compound 3004, N-((5-(5-(difluoromethyl)-1,3,4-oxadiazol-2-yl)pyridin-2-yl)methyl)-3-fluoro-1-isobutyl-N-phenylazetidine-3-carboxamide] | 917 fold | 28.4 | 26.1
CN(C)CCC(=O)N1CC(F)(C(=O)N(Cc2ccc(-c3nnc(C(F)F)o3)cn2)c2ccccc2)C1 [Compound 3006, N-((5-(5-(difluoromethyl)-1,3,4-oxadiazol-2-yl)pyridin-2-yl)methyl)-1-(3-(dimethylamino)propanoyl)-3-fluoro-N-phenylazetidine-3-carboxamide] | 2,032 fold | 24.6 | > 50
CN(C)CCCC(=O)N1CC(F)(C(=O)N(Cc2ccc(-c3nnc(C(F)F)o3)cn2)c2ccccc2)C1 [Compound 3007, N-((5-(5-(difluoromethyl)-1,3,4-oxadiazol-2-yl)pyridin-2-yl)methyl)-1-(4-(dimethylamino)butanoyl)-3-fluoro-N-phenylazetidine-3-carboxamide] | 1,945 fold | 25.7 | > 50
CN1CC(F)(C(=O)N(Cc2ccc(-c3nnc(C(F)F)o3)cn2)c2cccc(F)c2)C1 [Compound 3047, N-((5-(5-(difluoromethyl)-1,3,4-oxadiazol-2-yl)pyridin-2-yl)methyl)-3-fluoro-N-(3-fluorophenyl)-1-methylazetidine-3-carboxamide] | 242 fold | 85.7 | 20.8
